Results: patent US20230295140A1, “INHIBITORS OF VAP-1” (Acucela Inc., priority 2021, published 2023)

How the values were obtained:
Assay type in all cases: biochemical
rhVAP-1 = rhVAP-1 (Homo sapiens (Human), UniProt Q16853); experiment: VAP-1 fluorometric assay (Amplex Red/HRP, benzylamine substrate); details: class symbols, ranges defined in μM
In short: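 Recombinant human VAP-1 oxidizes 50 μM benzylamine in 10 mM NaHCO3 pH 7.4 containing 0.05 mM Amplex Red and 0.5 U HRP, with inhibitor in 0.5% DMSO. After 30 min at 37 °C in the dark, resorufin fluorescence is read […], calibrated against an H2O2 standard curve.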

rhMAO-A = rhMAO-A (Homo sapiens (Human), UniProt P21397); experiment: MAO-Glo assay, MAO-A inhibition
In short: (§1)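 Recombinant human MAO-A or MAO-B with luciferin-derivative substrate (10 μM for MAO-A, […]) in 100 mM HEPES pH 7.5, 5% glycerol, 1 h at room temperature; luminescence read 20 min after detection reagent.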

rhMAO-B = rhMAO-B (Homo sapiens (Human), UniProt P27338); experiment: MAO-Glo assay, MAO-B inhibition
In short: as §1

[1] = class symbols, ranges defined in μM

rhMAO-B, sequence (P27338 whole entry): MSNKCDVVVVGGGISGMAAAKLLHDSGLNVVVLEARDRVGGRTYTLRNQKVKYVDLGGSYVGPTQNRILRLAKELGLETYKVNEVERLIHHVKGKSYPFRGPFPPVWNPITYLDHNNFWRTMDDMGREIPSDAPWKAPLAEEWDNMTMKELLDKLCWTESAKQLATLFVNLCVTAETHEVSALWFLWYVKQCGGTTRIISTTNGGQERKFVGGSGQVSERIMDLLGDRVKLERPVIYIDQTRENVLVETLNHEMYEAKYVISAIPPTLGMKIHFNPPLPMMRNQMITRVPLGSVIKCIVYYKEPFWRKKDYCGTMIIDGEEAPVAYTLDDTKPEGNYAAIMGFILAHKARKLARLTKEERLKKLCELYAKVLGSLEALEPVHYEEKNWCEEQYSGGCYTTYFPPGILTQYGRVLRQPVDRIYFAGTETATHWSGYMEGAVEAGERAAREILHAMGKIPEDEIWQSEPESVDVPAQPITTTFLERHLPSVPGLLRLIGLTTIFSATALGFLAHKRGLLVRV
rhVAP-1, sequence (Q16853 whole entry): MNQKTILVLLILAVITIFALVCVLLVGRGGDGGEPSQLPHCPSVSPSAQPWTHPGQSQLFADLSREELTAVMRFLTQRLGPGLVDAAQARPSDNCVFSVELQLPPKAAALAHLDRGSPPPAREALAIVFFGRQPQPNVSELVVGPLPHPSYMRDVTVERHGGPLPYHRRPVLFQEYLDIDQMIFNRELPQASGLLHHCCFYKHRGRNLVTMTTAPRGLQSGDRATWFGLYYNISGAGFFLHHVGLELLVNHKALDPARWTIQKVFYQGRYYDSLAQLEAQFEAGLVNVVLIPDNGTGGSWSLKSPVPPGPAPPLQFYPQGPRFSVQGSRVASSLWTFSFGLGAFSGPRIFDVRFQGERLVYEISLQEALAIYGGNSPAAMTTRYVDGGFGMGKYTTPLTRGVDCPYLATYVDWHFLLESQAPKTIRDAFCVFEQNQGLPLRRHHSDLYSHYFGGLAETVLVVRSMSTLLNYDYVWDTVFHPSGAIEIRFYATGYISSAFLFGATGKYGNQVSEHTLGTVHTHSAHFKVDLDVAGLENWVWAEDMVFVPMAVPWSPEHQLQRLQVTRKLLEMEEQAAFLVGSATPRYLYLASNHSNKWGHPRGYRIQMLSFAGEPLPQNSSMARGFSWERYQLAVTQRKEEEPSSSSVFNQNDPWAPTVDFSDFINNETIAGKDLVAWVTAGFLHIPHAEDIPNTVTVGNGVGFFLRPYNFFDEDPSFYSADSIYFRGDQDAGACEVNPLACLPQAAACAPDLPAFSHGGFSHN
rhMAO-A, sequence (P21397 whole entry): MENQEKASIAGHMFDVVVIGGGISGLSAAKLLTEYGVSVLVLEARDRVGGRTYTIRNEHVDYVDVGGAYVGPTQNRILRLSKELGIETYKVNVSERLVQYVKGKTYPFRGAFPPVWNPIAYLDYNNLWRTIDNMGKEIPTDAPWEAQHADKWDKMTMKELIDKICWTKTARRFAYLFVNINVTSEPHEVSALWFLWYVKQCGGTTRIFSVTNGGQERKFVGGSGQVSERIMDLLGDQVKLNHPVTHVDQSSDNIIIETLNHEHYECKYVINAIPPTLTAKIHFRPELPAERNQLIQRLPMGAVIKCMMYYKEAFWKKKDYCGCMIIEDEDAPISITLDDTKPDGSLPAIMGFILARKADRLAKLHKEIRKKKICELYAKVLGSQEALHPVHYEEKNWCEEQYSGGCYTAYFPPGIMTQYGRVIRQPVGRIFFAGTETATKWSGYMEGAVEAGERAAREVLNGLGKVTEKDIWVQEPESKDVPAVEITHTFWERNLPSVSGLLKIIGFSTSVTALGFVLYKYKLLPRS

Row | Molecule | IC50 (rhVAP-1) | IC50 (rhMAO-A; [1]) | IC50 (rhMAO-B; [1]) | IC50 (rhMAO-B; bound printed in cell) | IC50 (rhMAO-A; bound printed in cell)
1 | NC/C(=C/F)COc1ccc2nc(NCc3ccc(N4CCCC4=O)cc3)oc2c1 [Example 57, (Z)-1-(4-(((6-((2-(aminomethyl)-3-fluoroallyl)oxy)benzo[d]oxazol-2-yl)amino)methyl)phenyl)pyrrolidin-2-one 4-methylbenzenesulfonate] | 1 to 10 µM | 1 to 10 µM |  | > 40 µM | 
2 | C=C(CN)c1ccc2nc(CCCC)oc2c1 [Example 92, 2-(2-butylbenzo[d]oxazol-6-yl)prop-2-en-1-amine] | 0.1 to 1 µM | < 0.1 µM | < 0.1 µM |  | 
3 | (Z)-2-((6-((2-(aminomethyl)-3-fluoroallyl)oxy)benzo[d]oxazol-2-yl)amino)-N-methylacetamide (4-methylbenzenesulfonate) [Example 63] | < 0.1 µM |  |  | > 40 µM | > 40 µM
4 | NC/C(=C/F)COc1ccc2nc(N3CCOCC3)oc2c1 [Example 64, (Z)-3-fluoro-2-(((2-morpholinobenzo[d]oxazol-6-yl)oxy)methyl)prop-2-en-1-amine 4-methylbenzenesulfonate] | < 0.1 µM | 1 to 10 µM | 1 to 10 µM |  | 
5 | CCCCc1nc2ccc(OC/C(=C/F)CN)cc2o1 [Example 1, (E)-2-(((2-butylbenzo[d]oxazol-6-yl)oxy)methyl)-3-fluoroprop-2-en-1-amine 4-methylbenzenesulfonate] | < 0.1 µM | < 0.1 µM | < 0.1 µM |  | 
6 | CCCCn1oc2cc(OC/C(=C/F)CN)ccc2c1=O [Example 9, (E)-6-((2-(aminomethyl)-3-fluoroallyl)oxy)-2-butylbenzo[d]isoxazol-3(2H)-one 4-methylbenzenesulfonate] | < 0.1 µM | 10 to 30 µM | 1 to 10 µM |  | 
7 | CCCCc1nc2ccc(OC/C(=C\F)CN)cc2n1C [Example 73, (Z)-2-(((2-Butyl-1-methyl-1H-benzo[d]imidazol-6-yl)oxy)methyl)-3-fluoroprop-2-en-1-amine 4-methylbenzenesulfonate] | < 0.1 µM | 1 to 10 µM | 1 to 10 µM |  | 
8 | CCCCc1nc2ccc(OC/C(=C/F)CN)cc2[nH]1 [Example 13, (E)-2-(((2-butyl-1H-benzo[d]imidazol-6-yl)oxy)methyl)-3-fluoroprop-2-en-1-amine 4-methylbenzenesulfonate] | < 0.1 µM |  | 1 to 10 µM |  | > 50 µM
9 | CC(C)(C)CCCc1nc2ccc(OC/C(=C/F)CN)cc2o1 [Example 51, (E)-2-(((2-(4,4-dimethylpentyl)benzo[d]oxazol-6-yl)oxy)methyl)-3-fluoroprop-2-en-1-amine 4-methylbenzenesulfonate] | < 0.1 µM | 1 to 10 µM | 0.1 to 1 µM |  | 
10 | CC(C)(Nc1nc2ccc(OC/C(=C/F)CN)cc2o1)c1ccccc1 [Example 48, (E)-6-((2-(aminomethyl)-3-fluoroallyl)oxy)-N-(2-phenylpropan-2-yl)benzo[d]oxazol-2-amine 4-methylbenzenesulfonate] | < 0.1 µM | 10 to 30 µM | 10 to 30 µM |  | 
11 | NC/C(=C\F)COc1ccc2nc(NCc3cccnc3)oc2c1 [Example 26, (E)-6-((2-(aminomethyl)-3-fluoroallyl)oxy)-N-(pyridin-3-ylmethyl)benzo[d]oxazol-2-amine 4-methylbenzenesulfonate] | < 0.1 µM | 10 to 30 µM | 1 to 10 µM |  | 
12 | COc1cc(CNc2nc3ccc(OC/C(=C\F)CN)cc3o2)ccn1 [Example 74, (Z)-6-((2-(aminomethyl)-3-fluoroallyl)oxy)-N-((2-methoxypyridin-4-yl)methyl)benzo[d]oxazol-2-amine 4-methylbenzenesulfonate] | < 0.1 µM | 1 to 10 µM | 1 to 10 µM |  | 
13 | COc1ccc(CNc2nc3ccc(OC/C(=C\F)CN)cc3o2)cn1 [Example 76, (Z)-6-((2-(aminomethyl)-3-fluoroallyl)oxy)-N-((6-methoxypyridin-3-yl)methyl)benzo[d]oxazol-2-amine 4-methylbenzenesulfonate] | < 0.1 µM | 1 to 10 µM | 1 to 10 µM |  | 
14 | NC/C(=C\F)COc1ccc2nc(N3CC4(COC4)C3)oc2c1 [Example 67, (E)-2-(((2-(2-oxa-6-azaspiro[3.3]heptan-6-yl)benzo[d]oxazol-6-yl)oxy)methyl)-3-fluoroprop-2-en-1-amine 4-methylbenzenesulfonate] | < 0.1 µM | 1 to 10 µM | 1 to 10 µM |  | 
15 | CC(C)(C)c1nc2ccc(OC/C(=C/F)CN)cc2o1 [Example 50, (E)-2-(((2-(tert-butyl)benzo[d]oxazol-6-yl)oxy)methyl)-3-fluoroprop-2-en-1-amine 4-methylbenzenesulfonate] | < 0.1 µM | 10 to 30 µM | 1 to 10 µM |  | 

The next lines start with results.

Row | IC50 (rhVAP-1) | IC50 (rhMAO-A; [1]) | IC50 (rhMAO-B; [1]) | Molecule | IC50 (rhMAO-B; bound printed in cell) | IC50 (rhMAO-A; bound printed in cell)
16 | < 0.1 µM | 10 to 30 µM | 0.1 to 1 µM | NC/C(=C\F)COc1ccc2nc(C34CCC(CC3)CC4)oc2c1 [Example 34, (E)-2-(((2-(bicyclo[2.2.2]octan-1-yl)benzo[d]oxazol-6-yl)oxy)methyl)-3-fluoroprop-2-en-1-amine 4-methylbenzenesulfonate] |  | 
17 | < 0.1 µM | 1 to 10 µM | 1 to 10 µM | NC/C(=C\F)COc1ccc2nc(N3CCC(O)C3)oc2c1 (stereo not drawn) [Example 85, (E)-1-(6-((2-(aminomethyl)-3-fluoroallyl)oxy)benzo[d]oxazol-2-yl)pyrrolidin-3-ol 4-methylbenzenesulfonate] |  | 
18 | < 0.1 µM | 10 to 30 µM | 0.1 to 1 µM | NC/C(=C\F)COc1ccc2nc(NCc3ccccc3)oc2c1 [Example 21, (E)-6-((2-(aminomethyl)-3-fluoroallyl)oxy)-N-benzylbenzo[d]oxazol-2-amine 4-methylbenzenesulfonate] |  | 
19 | < 0.1 µM | 10 to 30 µM | < 0.1 µM | CCCCc1nc2ccc(OC/C(=C/F)CN)c(F)c2o1 [Example 2, (E)-2-(((2-butyl-7-fluorobenzo[d]oxazol-6-yl)oxy)methyl)-3-fluoroprop-2-en-1-amine] |  | 
20 | < 0.1 µM | 10 to 30 µM | 0.1 to 1 µM | CCCCc1nc2ccc(NC/C(=C\F)CN)cc2o1 [Example 44, (Z)—N1-(2-butylbenzo[d]oxazol-6-yl)-2-(fluoromethylene)propane-1,3-diamine 4-methylbenzenesulfonate] |  | 
21 | < 0.1 µM | 10 to 30 µM | 1 to 10 µM | NC/C(=C\F)COc1ccc2nc(NCc3ccncc3)oc2c1 [Example 23, (E)-6-((2-(aminomethyl)-3-fluoroallyl)oxy)-N-(pyridin-4-ylmethyl)benzo[d]oxazol-2-amine 4-methylbenzenesulfonate] |  | 
